In paper PMC5623949, “Exploiting the 2-Amino-1,3,4-thiadiazole Scaffold To Inhibit Trypanosoma brucei Pteridine Reductase in Support of Early-Stage Drug Discovery” (ACS Omega, 2017):
Read-outs that look alike come from different tables or passages of the source.

What was measured:
[1] = biological target: T1, hERG (Homo sapiens, UniProt Q12809); parameters: hERG inhibition liability assay
T1 construct: gene KCNH2
Procedure: (§1) Independent of the effect of any antiparasitic potential of compounds, they were evaluated using a panel of early-toxicity assays comprising cytotoxicity (A549, human lung adenocarcinoma epithelial cell line and WI-38, human lung fibroblasts), mitochondrial toxicity (786-O, human renal carcinoma cell line), hERG inhibition,[31] cytochrome P450 inhibition (CYP1A2, CYP2C9, CYP2C19, CYP2D6, and CYP3A4),[31] and Aurora B kinase inhibition. […] For the two compounds active against TbPTR1 (4m and 4o), IC50 against hERG, cytochrome P450, and mitochondrial toxicity were determined (reported in Supporting Information). We observed that the dose of compounds 4m, 4o, 4c, and 3k was 4 μM in the potentiation assays. […] In the case of hERG, CYP2D6, CYP2A9, CYP2C19, and mitochondrial toxicity, there is a selectivity index of around 3–4 fold, thus showing an acceptable profile.  Figure 10 Summary heat map of the in vitro assays to determine possible liability issues for all synthesized compounds. Assays were performed to assess inhibition of hERG and five CYP isoforms (1A2, 2C9, 2C19, 2D6, and 3A4), growth inhibition of A549 and W1-38 cell lines, and mitochondrial toxicity at 10 μM. The hDHFR inhibition was determined at 100 μM. The data, expressed as percentage values, were organized by adopting a color code for rapid and intuitive visualization. The ideal compound should have all tiles blue, indicating a safe toxicological profile for progressing into the development pipeline. The cells are colored from blue (100% of cell growth at the tested concentration) to red (0% of cell growth at the tested concentration) for A549 and W1-38 and from blue (0% of inhibitory activity at the tested concentration) to red (100% of inhibitory activity at the tested concentration) for CYP isoforms, hERG, hDHFR, and mitochondrial toxicity.

[2] = biological target: T2, CYP1A2 (Homo sapiens, UniProt P05177); assay: in vitro; parameters: cytochrome P450 isoform inhibition liability assay
T2 sequence (P05177 1-516): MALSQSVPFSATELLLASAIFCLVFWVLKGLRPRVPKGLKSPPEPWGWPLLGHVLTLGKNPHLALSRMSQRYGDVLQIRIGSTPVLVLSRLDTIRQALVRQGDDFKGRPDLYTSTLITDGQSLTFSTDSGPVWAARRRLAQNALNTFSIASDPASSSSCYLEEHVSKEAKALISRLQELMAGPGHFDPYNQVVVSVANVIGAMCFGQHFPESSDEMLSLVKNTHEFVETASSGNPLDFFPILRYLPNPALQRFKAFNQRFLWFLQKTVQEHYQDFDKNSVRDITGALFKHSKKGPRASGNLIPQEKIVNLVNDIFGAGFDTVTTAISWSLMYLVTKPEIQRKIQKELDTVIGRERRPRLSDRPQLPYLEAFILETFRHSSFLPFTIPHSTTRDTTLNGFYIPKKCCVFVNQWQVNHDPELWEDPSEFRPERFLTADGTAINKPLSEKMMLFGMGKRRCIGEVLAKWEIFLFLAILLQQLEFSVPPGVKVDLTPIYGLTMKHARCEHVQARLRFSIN
Procedure: as §1

[3] = biological target: CYP2C9 (Homo sapiens, UniProt P11712); assay: in vitro; parameters: cytochrome P450 isoform inhibition liability assay
Chain of CYP2C9 (P11712 whole entry, canonical isoform): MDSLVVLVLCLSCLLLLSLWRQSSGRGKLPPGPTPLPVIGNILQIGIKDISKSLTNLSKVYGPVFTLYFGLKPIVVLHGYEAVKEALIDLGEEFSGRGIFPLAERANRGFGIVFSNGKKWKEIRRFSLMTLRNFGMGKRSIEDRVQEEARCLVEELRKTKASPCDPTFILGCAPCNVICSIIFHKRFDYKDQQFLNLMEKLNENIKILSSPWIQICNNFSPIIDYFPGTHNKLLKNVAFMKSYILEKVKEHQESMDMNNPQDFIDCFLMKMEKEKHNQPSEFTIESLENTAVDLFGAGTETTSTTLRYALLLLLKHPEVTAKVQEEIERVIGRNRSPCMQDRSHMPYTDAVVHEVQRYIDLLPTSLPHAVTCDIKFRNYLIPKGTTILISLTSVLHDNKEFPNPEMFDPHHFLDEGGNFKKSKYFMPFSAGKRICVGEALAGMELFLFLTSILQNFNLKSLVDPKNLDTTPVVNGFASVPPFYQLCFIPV
Procedure: as §1

[4] = biological target: CYP2D6 (Homo sapiens, UniProt P10635); assay: in vitro; parameters: cytochrome P450 isoform inhibition liability assay
Chain of CYP2D6 (P10635 whole entry, canonical isoform): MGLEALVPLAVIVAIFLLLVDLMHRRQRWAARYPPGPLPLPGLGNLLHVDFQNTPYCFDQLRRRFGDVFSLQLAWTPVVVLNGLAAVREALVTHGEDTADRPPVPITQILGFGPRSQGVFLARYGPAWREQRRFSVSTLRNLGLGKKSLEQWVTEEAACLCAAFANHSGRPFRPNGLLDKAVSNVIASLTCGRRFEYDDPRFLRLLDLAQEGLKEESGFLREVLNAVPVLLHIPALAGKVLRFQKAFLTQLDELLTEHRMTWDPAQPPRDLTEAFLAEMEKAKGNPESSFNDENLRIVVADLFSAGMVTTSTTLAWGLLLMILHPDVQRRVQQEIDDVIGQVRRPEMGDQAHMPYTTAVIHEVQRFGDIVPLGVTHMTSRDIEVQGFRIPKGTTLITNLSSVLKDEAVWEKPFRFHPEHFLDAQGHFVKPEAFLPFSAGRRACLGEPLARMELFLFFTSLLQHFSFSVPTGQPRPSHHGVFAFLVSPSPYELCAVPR
Procedure: as §1

[5] = biological target: CYP3A4 (Homo sapiens, UniProt P08684); assay: in vitro; parameters: cytochrome P450 isoform inhibition liability assay
Chain of CYP3A4 (P08684 whole entry, canonical isoform): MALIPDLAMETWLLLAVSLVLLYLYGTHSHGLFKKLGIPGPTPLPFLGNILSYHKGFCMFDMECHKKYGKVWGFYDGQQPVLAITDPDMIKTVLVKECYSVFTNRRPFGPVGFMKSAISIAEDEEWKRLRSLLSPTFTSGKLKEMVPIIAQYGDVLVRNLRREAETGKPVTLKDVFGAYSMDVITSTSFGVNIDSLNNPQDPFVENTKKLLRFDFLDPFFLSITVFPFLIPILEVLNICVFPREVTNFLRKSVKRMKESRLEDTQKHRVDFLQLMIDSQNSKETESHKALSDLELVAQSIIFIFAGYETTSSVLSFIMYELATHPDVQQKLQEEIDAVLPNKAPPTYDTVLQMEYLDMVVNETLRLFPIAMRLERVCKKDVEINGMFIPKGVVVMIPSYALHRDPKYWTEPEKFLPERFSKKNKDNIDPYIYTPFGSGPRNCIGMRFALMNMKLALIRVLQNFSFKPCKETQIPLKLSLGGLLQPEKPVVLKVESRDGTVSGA
Procedure: as §1

[6] = biological target: CYP2C19 (Homo sapiens, UniProt P33261); assay: in vitro; parameters: cytochrome P450 isoform inhibition liability assay
Chain of CYP2C19 (P33261 whole entry, canonical isoform): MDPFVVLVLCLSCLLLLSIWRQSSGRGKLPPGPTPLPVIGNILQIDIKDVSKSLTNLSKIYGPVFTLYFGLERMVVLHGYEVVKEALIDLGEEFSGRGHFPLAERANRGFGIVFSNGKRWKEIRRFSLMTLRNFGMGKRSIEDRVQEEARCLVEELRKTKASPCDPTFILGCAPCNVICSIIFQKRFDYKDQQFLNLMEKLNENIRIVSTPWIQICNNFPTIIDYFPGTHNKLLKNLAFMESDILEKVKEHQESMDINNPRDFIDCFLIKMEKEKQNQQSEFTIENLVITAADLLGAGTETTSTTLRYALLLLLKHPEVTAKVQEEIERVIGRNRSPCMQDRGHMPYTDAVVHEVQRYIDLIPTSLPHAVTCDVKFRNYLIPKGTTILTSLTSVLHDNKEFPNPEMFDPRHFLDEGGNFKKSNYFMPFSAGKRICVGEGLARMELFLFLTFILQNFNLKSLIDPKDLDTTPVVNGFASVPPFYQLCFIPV
Procedure: as §1

[7] = in vitro; parameters: cytotoxicity, per cent cell growth of A549 cells; settings: human, a549 cells; read-out: % cell growth A549 at 10uM
Procedure: as §1

[8] = biological target: T3, hDHFR (Homo sapiens, UniProt P00374); assay: biochemical; parameters: human DHFR enzyme inhibition
T3 construct: gene DHFR
T3 sequence (P00374 1-187): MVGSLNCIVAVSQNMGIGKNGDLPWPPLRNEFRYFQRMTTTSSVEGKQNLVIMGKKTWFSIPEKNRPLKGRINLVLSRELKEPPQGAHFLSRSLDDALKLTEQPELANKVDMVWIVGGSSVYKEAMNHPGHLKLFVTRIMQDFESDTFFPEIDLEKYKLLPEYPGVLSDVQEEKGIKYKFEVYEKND
Procedure: Figure 10 Summary heat map of the in vitro assays to determine possible liability issues for all synthesized compounds. Assays were performed to assess inhibition of hERG and five CYP isoforms (1A2, 2C9, 2C19, 2D6, and 3A4), growth inhibition of A549 and W1-38 cell lines, and mitochondrial toxicity at 10 μM. The hDHFR inhibition was determined at 100 μM. The data, expressed as percentage values, were organized by adopting a color code for rapid and intuitive visualization. The ideal compound should have all tiles blue, indicating a safe toxicological profile for progressing into the development pipeline. The cells are colored from blue (100% of cell growth at the tested concentration) to red (0% of cell growth at the tested concentration) for A549 and W1-38 and from blue (0% of inhibitory activity at the tested concentration) to red (100% of inhibitory activity at the tested concentration) for CYP isoforms, hERG, hDHFR, and mitochondrial toxicity.

[9] = biological target: T4, TbPTR1 (Trypanosoma brucei brucei, UniProt O76290); assay: biochemical; settings: for inhibition at 50 µM: 50 μM compound, read-out: % Inhibition TbPTR1 at 50 μM
T4 construct: made in house
T4 sequence (O76290 1-268): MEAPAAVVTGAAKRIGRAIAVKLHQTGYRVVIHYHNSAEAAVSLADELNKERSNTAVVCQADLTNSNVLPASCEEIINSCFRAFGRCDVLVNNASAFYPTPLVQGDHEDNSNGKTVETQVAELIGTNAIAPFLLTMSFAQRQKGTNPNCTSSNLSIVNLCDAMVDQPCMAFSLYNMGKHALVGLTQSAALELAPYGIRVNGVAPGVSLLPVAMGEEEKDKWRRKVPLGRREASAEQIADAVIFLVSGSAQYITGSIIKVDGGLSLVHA

[10] = tested on: T. b. brucei Lister 427 bloodstream forms; assay: In vitro activity against T. brucei (HTS SYBR Green I growth inhibition assay); type: cell-based, Trypanosoma brucei brucei; settings: Trypanosoma brucei, standard deviation within ±10% of the value; for inhibition at 50 µM: read-out: % Inhibition T. brucei at 50 μM; for EC50: read-out: EC50 T. brucei
[11] = in vitro; parameters: cytotoxicity, per cent cell growth of WI-38 fibroblasts; settings: human, wi-38 cells; read-out: % cell growth W1-38 at 10uM
Procedure: as §1

[12] = tested on: 786-O; assay: cells; parameters: mitochondrial toxicity in 786-O renal carcinoma cells; settings: Homo sapiens, 786-0; mitochondrial toxicity
Procedure: as §1

T1 sequence (Q12809 whole entry): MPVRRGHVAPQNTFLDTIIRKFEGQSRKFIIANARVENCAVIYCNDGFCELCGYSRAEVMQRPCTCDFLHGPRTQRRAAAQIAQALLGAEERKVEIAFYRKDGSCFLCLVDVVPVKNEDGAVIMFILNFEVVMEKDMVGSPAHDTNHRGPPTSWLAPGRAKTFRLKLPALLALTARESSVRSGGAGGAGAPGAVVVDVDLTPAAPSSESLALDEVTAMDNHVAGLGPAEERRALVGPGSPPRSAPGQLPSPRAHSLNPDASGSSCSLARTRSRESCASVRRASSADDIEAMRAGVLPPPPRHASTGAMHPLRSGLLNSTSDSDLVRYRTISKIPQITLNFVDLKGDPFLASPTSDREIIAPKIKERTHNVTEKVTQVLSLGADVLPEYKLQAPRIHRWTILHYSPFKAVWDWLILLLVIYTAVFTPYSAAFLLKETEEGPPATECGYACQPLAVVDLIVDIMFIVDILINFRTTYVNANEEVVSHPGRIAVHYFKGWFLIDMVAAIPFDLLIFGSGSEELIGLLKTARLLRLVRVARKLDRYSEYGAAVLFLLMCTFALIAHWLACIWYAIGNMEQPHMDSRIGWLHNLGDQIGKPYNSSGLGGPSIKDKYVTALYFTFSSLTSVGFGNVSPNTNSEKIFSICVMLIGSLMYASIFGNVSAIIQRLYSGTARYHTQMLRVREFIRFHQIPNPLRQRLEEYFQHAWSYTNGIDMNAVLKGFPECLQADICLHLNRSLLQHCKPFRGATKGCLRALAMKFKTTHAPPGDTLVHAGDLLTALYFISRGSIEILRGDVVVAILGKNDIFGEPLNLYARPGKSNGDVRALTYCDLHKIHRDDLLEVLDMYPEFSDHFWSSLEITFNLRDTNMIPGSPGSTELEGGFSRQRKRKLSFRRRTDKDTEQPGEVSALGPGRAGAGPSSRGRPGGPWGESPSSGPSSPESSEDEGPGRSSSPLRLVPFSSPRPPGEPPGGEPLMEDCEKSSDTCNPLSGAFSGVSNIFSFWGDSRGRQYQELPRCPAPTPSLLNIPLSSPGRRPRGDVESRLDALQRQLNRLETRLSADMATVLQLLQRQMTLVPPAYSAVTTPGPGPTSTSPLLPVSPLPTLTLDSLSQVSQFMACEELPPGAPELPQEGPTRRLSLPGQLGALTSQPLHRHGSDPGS

Row | inhibition at 25 µM ([8]; 25 uM) [%] | Compound | inhibition at 10 µM [1] [%] | inhibition at 10 µM [2] [%] | inhibition at 10 µM [3] [%] | inhibition at 10 µM [4] [%] | inhibition at 10 µM [5] [%] | inhibition at 10 µM [6] [%] | viability at 10 µM [7] [%] | inhibition at 100 µM [8] [%] | times less active than 4o against TbPTR1 [9] | inhibition at 50 µM [9] [%] | IC50 ([9]; dose-response 0.001-100 μM) [µM] | inhibition at 50 µM [10] [%] | viability at 10 µM [11] [%] | inhibition at 10 µM [12] [%] | inhibition at 10 µM ([8]; 10 uM) [%] | EC50 [10] [µM]
1 |  | Nc1nnc(NCCc2ccccc2)s1 [4n] | 91.4 ± 6.2 | 22.7 ± 1.9 | 30.4 ± 2.9 | 103 ± 0.2 | 25.1 ± 4.3 | 29.2 ± 6.6 | 112 ± 5.4 | 19 | about 3 times | 36.7 ± 2 | 62 | 4 | 66.1 ± 3.1 |  |  | 
2 | 37 | N#Cc1ccc(Cc2ccccc2-c2nnc(N)s2)cc1 [1n, 4-(2-(5-amino-1,3,4-thiadiazol-2-yl)benzyl)benzonitrile] |  | 56.2 ± 0.5 | 59.8 ± 4.9 | 75.4 ± 5.2 | 69.6 ± 3.25 | 104 ± 2 |  |  |  |  |  |  |  |  |  | 
3 |  | COc1ccc(-c2cccc(-c3nnc(N)s3)c2)cc1OC [2f] | 15.1 ± 4.8 | 92.8 ± 1.9 | 53.2 ± 1.6 | 19.2 ± 3.5 | 48.3 ± 2.4 |  | 106 ± 4.2 | 28 |  | 8.6 ± 0.6 |  | 9.5 | 87.5 ± 44.4 | 1.6 ± 14.4 |  | 
4 |  | Nc1cccc(-c2nnc(N)s2)c1 [1j] | 32.6 ± 34.3 | 5.3 ± 5.1 | -20.2 ± 7.3 | -51 ± 8.9 | -14.9 ± 3.9 | -45.8 ± 11.8 | 134 ± 4.7 | 18 |  | 27 ± 0.4 |  | 1 | 92.5 ± 7.8 |  |  | 
5 |  | Nc1nnc(-c2cccc(-c3cccc(C(F)(F)F)c3)c2)s1 [2d] |  | 100 ± 2.1 | 46.1 ± 5.4 | 31.1 ± 4.3 | 33.9 ± 3.8 | 43.6 ± 2.1 |  |  |  | 4.6 ± 1 |  | 94.8 |  |  | 34 | 37
6 |  | C[C@@H](c1cccc(C(=O)c2ccccc2)c1)c1nnc(N)s1 [3f] | 16 ± 6.3 | -14.2 ± 7.1 |  | -12.7 ± 6.2 | 94.5 ± 0.8 | 39.3 ± 3.2 | 134 ± 3.3 | 51 |  | 47.2 ± 0.4 |  | 88 | 127 ± 21.4 | -3.4 ± 2.1 |  | 20
